Reference: article PMC8618187 (Nanomaterials, 2021)
Read-outs that look alike come from different tables or passages of the source.

Legend:
rats [1] = conditions: rat, in vivo, po, 20 mg/kg
Description: (§1) Healthy, female rats weighing 150 g and aged 10–14 weeks were taken from the animal house. Rats were divided into 4 groups (n = 4) and kept under a standard condition of food and water in the controlled environment. […] The dose (20 mg/kg) was administered orally through oral gavage. […] After 14 days, the rats were sacrificed for blood and serum biochemistry and tissue histology studies [29].
(§2) The blood from each rat was drawn through cardiac puncture into BD vacutainer blood collection tubes. […] The clear supernatant was carefully removed and stored at −20 °C. Liver function tests (LFTs) including alkaline phosphatase (ALP), serum glutamic-pyruvic transaminase (SGPT), serum glutamic-oxaloacetic transaminase (SGOT) and bilirubin, renal functions tests (RFTs) including urea and creatinine, serum electrolytes (Na, Mg, Ca, and P), glucose and total protein were analyzed using the serum.
(§3) Changes in the organs weight were measured to evaluate the toxicity of tested formulations. The vital organs (heart, kidneys, liver, and spleen) were removed from the rats after being sacrificed, washed with normal saline, and then weighed individually. The weights of organs from treated groups were compared with a control group and body mass index was calculated using the following formula [30]: organ−body weight index (%)=organ weight/body weight×100%
(§4) Vital organs (liver, kidney, heart, and spleen) were examined for toxicity and to notice any pathological changes [31]. The organs were stored in 10% formalin solution. A paraffin section (0.5 µm) was cut into the same size as the organ via a rotary microtome and was properly fixed. Tissue sections were then fixed onto glass slides followed by staining with hematoxylin and eosin periodic acid Schiff (PAS). The sections were examined under a microscope for any toxic effect produced by the redox and non-redox micelles.

rats [2] = assay: Acute oral toxicity (OECD 425), serum biochemistry, histopathology; conditions: single oral dose of 20 mg of PTX/kg, after 14 days
Description: as §1, §2, §3, §4

HCT-116 cells [3] = assay: Cell apoptosis by flow cytometry (Annexin V FITC/PI); format: cell-based, human; parameters: dose or concentration left out as unconfirmed; conditions: HCT-116, 48 h
Source text: After treatment, the cells were harvested and washed twice with cold PBS.

in vitro = conditions: rat, pH 6.5
Description: Briefly, the study was conducted on the intestine of healthy rats weighing between 250–300 g. The rats were sacrificed and the abdomen was opened with a middle incision. The intestine was immediately removed, thoroughly washed with Krebs ringer solution (pH 6.5), and cut into pieces of 4–5 cm. The intestine was everted by carefully passing a narrow glass rod from one end of the intestine and then gently rolling it on a glass rod. All the pieces were stored in an oxygenated Krebs ringer solution at 4 °C until further use. […] Each segment was tied at one end with a silk suture, and 1 mL of sample (1 mg/mL) was carefully filled in the sac using a hypodermic syringe and the other end was tied with a silk suture. […] All filled sacs were immersed in tubes filled with 10 mL of oxygenated Krebs solution and incubated at 37 °C under gentle mechanical shaking. The samples were collected at predefined times from the surrounding medium and replaced with the same amount of fresh solution. […] The apparent permeability was calculated using the following equation:Apparent permeability (µg/cm^2) = (concentration × volume)/mucosal surface area
The mucosal surface area was calculated assuming that the intestine is a cylinder by using the formula:Mucosal surface area (cm^2) = circumference (π × diameter) × length

[4] = Oral pharmacokinetics of PTX; format: in vivo, rats
Source text: Healthy female rats weighing 120–150 g were selected and fasted overnight with free access to water and were randomly distributed into four groups and each group had four rats (n = 4).

[5] = In vitro PTX release with kinetic modelling (with/without GSH); format: physicochemical; conditions: without GSH
Description: Glutathione (GSH)-triggered release was investigated in vitro from Ms, R-Ms, PR-Ms, and PT-R-Ms formulations (without GSH) and from PT-R-Ms in the presence of 20 mM GSH.
Redox responsive multifunctional micelles remained indolent in the physiological environment and became activated when they reached a reductive environment, which is another approach for targeted site-specific delivery. As a proof-of-concept, glutathione (GSH)-triggered release (to mimic the redox tumor microenvironment) was investigated in vitro from Ms, R-Ms, PR-Ms, and PT-R-Ms formulations (without GSH) and from PT-R-Ms in the presence of 20 mM GSH. The controlled burst release was confirmed by applying kinetic models of drug release (zero-order, Higuchi, Korsmeyer–Peppas, and Hixon Crowell) to the different formulations, and the results are gathered in Table 2. The Korsmeyer–Peppas model was proven to be suitable to explain the release kinetics from the PT-R-Ms, which is a prerequisite for polymeric systems.

[6] = In vivo biodistribution (fluorescence of excised organs and tumors); parameters: species or system rats; conditions: oral
Description: The fluorotagged PT-R-Ms were given orally to rats by oral gavage. After 48 h, rats were sacrificed and their major organs were excised to investigate the formulation distribution within them. The fluorescence intensity of the excised organs (heart, liver, spleen, and kidney) was examined using the iBox Explorer2 (iBox® Explorer2 Imaging Microscope; UVP Ltd. The system was set on a 535/45 nm excitation filter and a 605/50 nm emission filter with the automated BioLite™ MultiSpectral Light Source. Images were taken at 0.17× magnification, and the intensity was kept at 6 using the 3.2 MP OptiChemi 610 camera (Vision Works® LS Acquisition, AnlyticJena, Jena, Germany). An analysis software was used to study the images.

human macrophages = assay: Biocompatibility against human macrophages (MTT); format: cell-based; conditions: high concentrations
Description: Biocompatibility studies of pure PTX, Ms, RMs, PR-Ms, and PT-R-Ms were performed against human macrophages. Ficoll-percoll gradient technique was used to isolate human macrophages. Ficoll solution was prepared by dissolving 5.6 g of ficoll in 9.5 mL deionized water and 5 mL gastrografin to achieve a density of 1.070 g/mL. The fresh human blood (10 cm^3) was diluted three times with Hanks buffer salt solution (HBSS), layered onto a percoll gradient and then centrifuged at 400× g for 5 min to isolate the macrophage layer. The separated cells were suspended in RPMI medium (10% FBS, 100 U/mL penicillin, 0.1 mg/mL streptomycin, and 25 mM HEPES) and incubated at 5% CO2. […] Normal cells were taken as negative controls, while cells treated with 1% Triton X were used as positive controls to investigate the viability.

HCT-116 cells [7] = assay: Cellular uptake of curcumin by fluorescence microscopy; format: cell-based, human; conditions: curcumin loaded into PT-R-Ms micelles, HCT-116, 0, 6, 12 h
Description: To analyze the internalization of curcumin (a P-gP inhibitor) into tumor cells, HCT-116 tumor cells were used. Curcumin as a fluorescent probe was encapsulated within the core of PT-R-Ms micelles following a similar procedure to that mentioned earlier for PTX loaded micelles. The HCT-116 cells were seeded into 6 well plates at a density of 1 × 10^6 cells/well. After 24 h the cells became confluent and were incubated with curcumin-loaded PT-R-Ms for different time periods (0, 6, 12 h). Upon incubation, the medium was removed and the cells were washed with cold PBS. Subsequently, the uptake of curcumin was monitored by fluorescence microscopy (Evos® FL Cell Imaging System, Thermo Fisher Scientific, Waltham, MA, USA). Ex vivo assays based on the tumor tissue slice model were used to analyze the curcumin uptake by inhibition of P-gP efflux pump overexpressed on tumor cells, as reported earlier. Different slides of tumor tissue were prepared and stained with curcumin-loaded PT-R-Ms. Similarly, HCT-116 tumor tissue cells were incubated for different time intervals to monitor the uptake of curcumin.

[8] = female, rat, plasma, oral gavage, 20 mg/kg

CC(=O)O[C@H]1C(=O)[C@@]2(C)[C@H]([C@H](OC(=O)c3ccccc3)[C@]3(O)C[C@H](OC(=O)[C@H](O)[C@@H](NC(=O)c4ccccc4)c4ccccc4)C(C)=C1C3(C)C)[C@]1(OC(C)=O)CO[C@@H]1C[C@@H]2O [PTX, paclitaxel]
histopathological changes in the liver tissue (rats [1]): cytoplasmic degeneration, necrosis, hemorrhage, and infiltration of inflammatory cells
histopathology of heart tissue (rats [1]): lesions, myocarditis, and infiltration of inflammatory cells
histopathology of kidney tissue (rats [1]): distorted glomeruli, dilated tubules, edema exudate, mild necrosis, and infiltration of inflammatory cells
histopathology of spleen tissue (rats [1]): distorted lymphoid architecture
Mortality, tissue damage, or bodyweight change (rats [2]): not observed
percentage of apoptotic cells (HCT-116 cells [3]): 28.57 ± 0.06%
Papp A→B at 1 mg/mL (in vitro): 0.43 ± 0.2 ×10⁻⁶ cm/s
Papp B→A at 1 mg/mL (in vitro): 2.35 ± 0.2 ×10⁻⁶ cm/s
time above the minimum effective concentration / within the therapeutic window ([4]; MEC 35 ng/mL, oral): 2 h
bioavailability ([4]; female, rat, plasma, po, 20 mg/kg): 7.5%
Cmax [4, 8]: 70.69 ± 0.14 ng/mL
half-life [4, 8]: 32.9 ± 2.2 h
AUC(0-t) ([4]; female, rat, plasma, oral gavage, 20 mg/kg, read-out: AUC 0-96): 4271 ± 8.4 ng·h/mL
MRT last ([4]; female, rat, plasma, oral gavage, 20 mg/kg, read-out: MRT 0-96): 54.9 ± 2.7 h
Tmax ([4]; female, rat, plasma, oral gavage, 20 mg/kg, read-out: Tmax): 4 ± 0.2 h
Tmax ([4]; oral gavage, 20 mg/kg): 2 h
Higuchi Model K0 [5]: 40.117
Hixon Crowell Model K0 [5]: 0.190
Korsmeyer–Peppas Model N [5]: 0.701
Zero Order K0 [5]: 21.01
biodistribution: liver [6]: significantly higher uptake in the liver
toxicity against human macrophages (human macrophages): cytotoxic

COc1cc(/C=C/C(=O)CC(=O)/C=C/c2ccc(O)c(OC)c2)ccc1O [curcumin]
time of maximum curcumin uptake (HCT-116 cells [7]): 12 h
